Values of other authors as cited in publication PMC9851200, “Multiparameter phenotypic screening for endogenous TFEB and TFE3 translocation identifies novel chemical series modulating lysosome function” (Autophagy, 2022).

What was measured:
Design in all cases: method as in original PKIS2 published data
[1] = target: T1, kinases (KINOMEscan panel) (Homo sapiens, UniProt P20794); details: Published KINOMEscan; ref original PKIS2 published data; cited from earlier work
T1 sequence (P20794 1-623): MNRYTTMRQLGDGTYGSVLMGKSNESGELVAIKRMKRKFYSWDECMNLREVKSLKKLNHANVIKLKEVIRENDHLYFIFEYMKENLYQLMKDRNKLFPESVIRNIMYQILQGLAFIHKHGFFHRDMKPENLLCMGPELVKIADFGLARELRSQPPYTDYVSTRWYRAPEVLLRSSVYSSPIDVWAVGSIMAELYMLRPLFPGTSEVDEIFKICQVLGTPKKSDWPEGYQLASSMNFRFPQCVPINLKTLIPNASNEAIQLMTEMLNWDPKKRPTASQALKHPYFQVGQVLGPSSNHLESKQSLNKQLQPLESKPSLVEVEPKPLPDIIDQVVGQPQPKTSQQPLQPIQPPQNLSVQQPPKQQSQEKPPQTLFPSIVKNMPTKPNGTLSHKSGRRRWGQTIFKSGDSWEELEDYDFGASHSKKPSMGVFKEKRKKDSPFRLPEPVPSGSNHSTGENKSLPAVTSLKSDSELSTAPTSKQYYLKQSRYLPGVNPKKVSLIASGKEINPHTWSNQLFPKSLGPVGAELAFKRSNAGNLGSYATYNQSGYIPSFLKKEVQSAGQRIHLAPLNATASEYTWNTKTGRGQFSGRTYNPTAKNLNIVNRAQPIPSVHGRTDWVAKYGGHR

[2] = target: T2, kinases (KINOMEscan panel) (Homo sapiens, UniProt P15735); details: kinase PHKG2; Published KINOMEscan; ref original PKIS2 published data; cited from earlier work
T2 sequence (P15735 1-406): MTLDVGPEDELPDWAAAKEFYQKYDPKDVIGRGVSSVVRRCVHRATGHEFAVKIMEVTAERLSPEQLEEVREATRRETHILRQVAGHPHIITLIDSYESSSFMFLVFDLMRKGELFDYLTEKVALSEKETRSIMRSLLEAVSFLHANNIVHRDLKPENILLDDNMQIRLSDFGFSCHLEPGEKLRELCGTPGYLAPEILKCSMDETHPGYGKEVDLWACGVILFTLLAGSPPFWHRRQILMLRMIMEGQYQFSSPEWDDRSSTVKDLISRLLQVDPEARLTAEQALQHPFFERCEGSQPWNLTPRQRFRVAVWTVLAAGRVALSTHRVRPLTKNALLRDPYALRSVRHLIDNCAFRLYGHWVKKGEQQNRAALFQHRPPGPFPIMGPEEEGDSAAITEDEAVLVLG

[3] = target: kinases (KINOMEscan panel) (Homo sapiens, UniProt P49759); details: kinase CLK1; Published KINOMEscan; ref original PKIS2 published data; cited from earlier work
[4] = target: kinases (KINOMEscan panel) (Homo sapiens, UniProt P37023); details: ACVRL1; Published KINOMEscan; ref original PKIS2 published data; cited from earlier work
[5] = target: T3, kinases (KINOMEscan panel) (Homo sapiens, UniProt Q9HBY8); details: Published KINOMEscan; ref original PKIS2 published data; cited from earlier work
T3 sequence (Q9HBY8 1-367): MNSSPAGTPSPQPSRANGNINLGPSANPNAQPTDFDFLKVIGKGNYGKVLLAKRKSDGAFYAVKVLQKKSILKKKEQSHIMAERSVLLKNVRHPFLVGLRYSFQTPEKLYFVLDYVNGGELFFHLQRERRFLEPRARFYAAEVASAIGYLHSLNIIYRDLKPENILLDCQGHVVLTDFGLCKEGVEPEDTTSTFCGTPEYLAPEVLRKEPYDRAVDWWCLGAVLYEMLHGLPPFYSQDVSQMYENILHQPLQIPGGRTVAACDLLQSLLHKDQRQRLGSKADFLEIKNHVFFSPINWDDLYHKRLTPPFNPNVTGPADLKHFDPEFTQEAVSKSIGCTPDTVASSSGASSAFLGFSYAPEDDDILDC

[6] = target: T4, kinases (KINOMEscan panel) (Homo sapiens, UniProt O15530); details: Published KINOMEscan; ref original PKIS2 published data; cited from earlier work
T4 sequence (O15530 1-556): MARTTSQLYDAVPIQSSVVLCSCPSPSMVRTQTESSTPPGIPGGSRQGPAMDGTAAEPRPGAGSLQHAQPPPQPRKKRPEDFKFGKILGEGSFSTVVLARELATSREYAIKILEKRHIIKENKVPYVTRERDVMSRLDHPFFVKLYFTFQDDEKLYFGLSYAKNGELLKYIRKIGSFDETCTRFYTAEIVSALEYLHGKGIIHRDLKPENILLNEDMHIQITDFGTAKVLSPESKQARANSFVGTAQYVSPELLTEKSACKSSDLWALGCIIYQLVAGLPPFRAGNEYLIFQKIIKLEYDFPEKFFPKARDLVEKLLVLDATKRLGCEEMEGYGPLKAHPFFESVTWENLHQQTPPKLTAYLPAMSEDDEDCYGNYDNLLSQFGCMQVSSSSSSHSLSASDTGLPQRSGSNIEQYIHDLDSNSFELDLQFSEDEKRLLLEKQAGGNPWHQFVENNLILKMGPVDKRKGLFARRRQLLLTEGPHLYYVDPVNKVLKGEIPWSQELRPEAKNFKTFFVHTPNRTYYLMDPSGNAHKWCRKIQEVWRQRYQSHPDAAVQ

kinases (KINOMEscan panel) (Homo sapiens, UniProt P49759), sequence (P49759 whole entry): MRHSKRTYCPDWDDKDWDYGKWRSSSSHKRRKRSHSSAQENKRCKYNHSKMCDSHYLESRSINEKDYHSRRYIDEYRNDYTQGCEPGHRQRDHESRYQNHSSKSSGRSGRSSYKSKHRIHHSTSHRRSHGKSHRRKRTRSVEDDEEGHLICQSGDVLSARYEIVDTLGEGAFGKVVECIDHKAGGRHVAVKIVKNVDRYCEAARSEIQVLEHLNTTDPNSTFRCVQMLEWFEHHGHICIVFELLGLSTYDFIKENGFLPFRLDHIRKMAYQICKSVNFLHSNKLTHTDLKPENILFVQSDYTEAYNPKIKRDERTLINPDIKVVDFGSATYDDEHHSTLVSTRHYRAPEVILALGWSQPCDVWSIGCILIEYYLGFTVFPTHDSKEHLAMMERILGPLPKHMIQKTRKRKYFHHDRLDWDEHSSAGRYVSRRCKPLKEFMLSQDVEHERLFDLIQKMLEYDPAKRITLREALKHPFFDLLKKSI
kinases (KINOMEscan panel) (Homo sapiens, UniProt P37023), sequence (P37023 22-503): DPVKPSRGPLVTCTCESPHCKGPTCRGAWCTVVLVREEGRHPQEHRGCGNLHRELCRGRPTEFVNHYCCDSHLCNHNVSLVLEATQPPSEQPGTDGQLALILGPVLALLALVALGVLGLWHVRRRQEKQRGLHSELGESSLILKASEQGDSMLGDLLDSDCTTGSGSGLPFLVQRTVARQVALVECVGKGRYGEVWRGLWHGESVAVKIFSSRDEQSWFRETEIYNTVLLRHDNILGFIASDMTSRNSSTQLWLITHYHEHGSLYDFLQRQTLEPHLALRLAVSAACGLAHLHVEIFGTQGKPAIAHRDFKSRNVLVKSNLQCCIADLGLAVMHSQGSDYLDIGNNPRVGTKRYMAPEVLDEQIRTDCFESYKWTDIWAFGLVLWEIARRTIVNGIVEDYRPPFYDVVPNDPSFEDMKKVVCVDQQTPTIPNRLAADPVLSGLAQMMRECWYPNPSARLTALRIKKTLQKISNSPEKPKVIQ

Cc1cccc(-c2nc(Nc3ccncc3)c3ccccc3n2)n1 [NK215]
KINOMEscan MAK [1]: 0
KINOMEscan PHKG2 [2]: 3
KINOMEscan CLK1 [3]: 10
KINOMEscan ACVRL1 [4]: 65
KINOMEscan SGK2 [5]: 0
KINOMEscan PDPK1 [6]: 24
